In patent US8415309B2, “Bicyclic nucleosides and nucleotides as therapeutic agents” (priority 2009, dated 2013):

Columns and labels:
[1] = molecular target: T1, HCV NS5bΔ55 (genotype 1b) (Hepatitis C virus genotype 1b, UniProt P26663); test: HCV Polymerase Inhibition Assay; format: biochemical
T1 construct: 100 nM HCV NS5bΔ55 (genotype 1b) in a 50 μl reaction mixture
Protocol: Poly r(U) RNA template (Sigma) is employed for the HCV NS5b polymerase inhibition assay using a NS5bΔ55 (genotype 1b) purified enzyme. The kinetic constant, Km, is determined for the Poly r(U) template and ATP using a non-linear, least squares fit of initial rates as a function of substrate concentration assuming Michaelis-Menten kinetics.
Standard RdRp assays consist of 20 μg/mL Poly r(U) RNA template and 100 nM HCV NS5bΔ55 (genotype 1b) in a 50 μl reaction mixture containing 20 mM Tris-HCl, 5 mM MgCl2, 5 mM MnCl2, 3 mM DTT, 72 μM ATP, and 0.019 μM [α-^33P]ATP. Elongation reactions are initiated by the addition of ATP, and proceed for 60 min at 25° C. Reactions are quenched by the addition of 0.2 M EDTA, and product formation is collected by filtration through Multiscreen plates (Millipore). Quantification of product formation was performed using TopCount (Perkin Elmer). The inhibitor concentration at which the enzyme catalysed rate is reduced by half (IC50) is determined using a computer program for curve fitting.

HCV NS5b polymerase = molecular target: T2, HCV NS5b polymerase (Hepatitis C virus genotype 1b, UniProt P26663); test: HCV NS5b Polymerase Ki Determination Assay; format: biochemical
T2 construct: 100 nM HCV NS5bΔ55 (genotype 1b) in a 50 μl reaction mixture
Protocol: A modified method of the NS5b Polymerase inhibition assay was used to determine the Ki and the mode of action for NS5b inhibitor compounds. The enzyme and template were fixed at 100 nM and 20 µg/mL and all other reaction conditions were identical to the NS5b polymerase inhibition assay. The velocity of NS5b reactions were monitored at different ATP and inhibitor concentrations. The ATP concentration ranged from 0.1 μM to 1000 μM, and the concentration of the inhibitor ranged from 0.003 fold to 7 fold of the IC50 value. Velocities obtained at each ATP and inhibitor concentration were analysed using Graph Pad Prism to identify the mode of inhibition and Ki for inhibitor compounds. Under these conditions, the Ki for Compound 25 is 0.08 μM.

[2] = In vitro anabolism of Compound 9, intracellular triphosphate in replicon cells; format: in vitro ADME, human; conditions: human, Huh-7 cells carrying an HCV subgenomic replicon, Huh-7 replicon cells
Protocol: (§1) In vitro anabolism of Compound 9 and the intracellular accumulation of its triphosphate (Compound 25) were studied in adherent Huh-7 and plated primary human hepatocytes. The Huh-7 human hepatoma liver cells (JCRB0403 http://cellbank.nibio.go.jp/) are maintained in DMEM containing 10% fetal bovine serum (FBS). Huh-7 cell clones carrying a HCV subgenomic replicon (Lohmann et al., 1999. Science 285: 110-113) are maintained in DMEM supplemented with 10% FBS and 0.25 mg/ml G418. The cell lines are grown at 37° C. in a 5% CO2-95% air atmosphere. Plated primary human hepatocytes (6-well Collagen/No Overlay) were purchased from Cellz Direct (NC, USA) and maintained in InVitroGro Medium (Celsis, In Vitro Technologies, MD USA) under the same incubation conditions.
(§2) For intracellular anabolism studies, Huh-7 cells are trypsinized, harvested, re-suspended in DMEM supplemented with 10% FBS, counted and seeded at a density of 0.7×10^6 cells per well in a six-well plate and incubated for a period of 24 hr at 37° C. in 5% CO^2 atmosphere. Media is removed and replaced with fresh DMEM+10% FBS containing 10 μM Compound 9 for a period of 24 hr at 37° C. The cell monolayer is then quickly washed three times with drug-free medium to remove extracellular Compound 9 and each well is incubated with fresh DMEM+10% FBS for a specified time period (i.e. 6-wells at 0, 2, 4, 8, 24 and 48 hr). At the end of the incubation period, the medium is aspirated from the well and the cell monolayer is washed with cold phosphate buffered saline, pH 7.4. The washed cell monolayer is treated with 1.0 ml ice-cold 70% methanol:water, scraped and harvested into a centrifuge tube and then sonicated for 1 min at 4° C. […]
(§3) Sample Analysis for intracellular nucleoside metabolites: The cell lysate samples are thawed on ice, and subjected to two freeze/thaw cycles in a dry ice/acetone bath. […] The respective metabolites are identified and quantified by comparing their chromatographic profiles and peak area response with those of authentic standards.

[3] = test system: Huh-7-HCV subgenomic replicon cells; test: as above; format: in vitro ADME, human; conditions: Huh-7 replicon cells; 24 hours incubation with Compound 9 at 10 μM
Protocol: as §1, §2, §3

[4] = In vitro anabolism of Compound 9, intracellular triphosphate in primary human hepatocytes; format: in vitro ADME; conditions: human, plated primary human hepatocytes, Human Hepatocytes
Protocol: as §1
(§4) For intracellular anabolism studies, Huh-7 cells are trypsinized, harvested, re-suspended in DMEM supplemented with 10% FBS, counted and seeded at a density of 0.7×10^6 cells per well in a six-well plate and incubated for a period of 24 hr at 37° C. in 5% CO^2 atmosphere. Media is removed and replaced with fresh DMEM+10% FBS containing 10 μM Compound 9 for a period of 24 hr at 37° C. The cell monolayer is then quickly washed three times with drug-free medium to remove extracellular Compound 9 and each well is incubated with fresh DMEM+10% FBS for a specified time period (i.e. 6-wells at 0, 2, 4, 8, 24 and 48 hr). At the end of the incubation period, the medium is aspirated from the well and the cell monolayer is washed with cold phosphate buffered saline, pH 7.4. The washed cell monolayer is treated with 1.0 ml ice-cold 70% methanol:water, scraped and harvested into a centrifuge tube and then sonicated for 1 min at 4° C. The resulting cell lysate is stored overnight at −80° C. and subsequently used to extract the metabolites of Compound 9. Isolation of Compound 9 and the intracellular metabolites of Compound 9 from plated primary human hepatocytes uses similar experimental conditions, except that InVitroGro Medium is used as the cell culture medium.
(§5) Sample Analysis for intracellular nucleoside metabolites: The cell lysate samples are thawed on ice, and subjected to two freeze/thaw cycles in a dry ice/acetone bath. Cells extracts are vortexed and centrifuged at 16000 g for 5 min at 4° C. and 40 μL of supernatant is injected for analysis using a API4000 triple quadrupole system. The Shimadzu LC autosampler is set at 4° C. to minimize evaporation. Compound 9 mono-, di- and triphosphate (Compound 25) are separated using a pH gradient on a Biobasic AX, 3.0×50 mm column maintained at 40° C. […] The respective metabolites are identified and quantified by comparing their chromatographic profiles and peak area response with those of authentic standards.

[5] = test system: primary human hepatocytes; test: as above; format: in vitro ADME
Protocol: as §1, §4, §5

[6] = read-out: Triphosphate decay half-life, Elimination phase (β, h)
[7] = read-out: Triphosphate decay half-life, Initial phase (α, h) (converted)

T2 sequence (P26663 2420-2955): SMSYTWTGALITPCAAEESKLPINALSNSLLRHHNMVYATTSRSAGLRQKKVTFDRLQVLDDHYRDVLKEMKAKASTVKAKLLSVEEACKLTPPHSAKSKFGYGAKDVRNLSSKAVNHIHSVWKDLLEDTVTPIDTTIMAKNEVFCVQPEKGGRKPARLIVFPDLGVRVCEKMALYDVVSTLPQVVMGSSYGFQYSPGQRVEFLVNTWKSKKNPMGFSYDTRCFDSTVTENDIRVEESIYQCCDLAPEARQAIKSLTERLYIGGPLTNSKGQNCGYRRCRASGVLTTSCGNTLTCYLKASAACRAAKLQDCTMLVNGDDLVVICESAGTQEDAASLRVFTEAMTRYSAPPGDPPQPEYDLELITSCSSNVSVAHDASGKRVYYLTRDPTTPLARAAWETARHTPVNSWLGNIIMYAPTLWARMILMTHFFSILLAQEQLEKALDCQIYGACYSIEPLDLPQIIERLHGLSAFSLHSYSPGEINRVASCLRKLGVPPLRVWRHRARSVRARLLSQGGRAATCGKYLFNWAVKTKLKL
T1 sequence (P26663 2420-2955, stated change not applied): as the sequence (P26663 2420-2955) above

SMILES: C[C@@]1(O)[C@H](O)[C@@H](COP(=O)(O)OP(=O)(O)OP(=O)(O)O)O[C@H]1c1ccc2c(N)ncnn12 [Compound 25, 4-amino-7-(2-C-methyl-β-D-ribofuranosyl)-pyrrolo[2,1-f][1,2,4]triazine 5′-triphosphate]
- IC50 [1]: 370 nM
- Ki (HCV NS5b polymerase): 80 nM
- half-life at 10 μM [2, 6]: ≥ 38 h
- half-life at 10 μM [2, 7]: 0.59 h
- Intracellular Triphosphate Concentration (pmol/million cells, 24 hr incubation) [3]: 5.7 pmol/million cells
- half-life at 10 μM [4, 6]: ≥ 38 h
- half-life at 10 μM [4, 7]: 3.4 h
- Intracellular Triphosphate Concentration (pmol/million cells, 24 hr incubation) ([5]; Human Hepatocytes, 24 hours incubation with Compound 9 at 10 μM): 339 pmol/million cells
- intracellular triphosphate level in primary human hepatocytes relative to replicon cells ([5]; same experimental conditions, 10 μM Compound 9, 24 hours): ~60 fold
